# Results from PubChem BioAssay AID2619 (Sanford-Burnham Center for Chemical Genomics, 2010).
# Test system: MDA-MB-435 TRAIL sensitization, ATPlite luminescence, 24 h
# Experiment: PubChem AID 2619
smiles,measurement,setting,value
CSc1nc(-c2ccc(C)cc2)nc(C(Cl)Cl)n1,cytotoxicity with TRAIL,at 10 µM (top of the series),82%
same,cytotoxicity,"compound alone without TRAIL, at 10 µM, stronger effect = higher value",1%
